Measurements: ChEMBL document CHEMBL1201862, “PubChem BioAssay data set” (2004)
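1) Cells in 96-well plates. 2) Compound, 48 h, 5 concentrations. 3) Linear interpolation between surrounding doses. 4) Unreached endpoint = highest concentration. GI50 marks 50% less growth.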 Active and inactive are the calls of the source. Rule as the data show it: active = GI50 up to about 1.1 µM and inactive = higher.

Legend:
Experiment in all cases: NCI tumour cell line growth inhibition, 48 h
NCI-H23 = tested on: NCI-H23
SNB-75 = tested on: SNB-75
HCT-116 = tested on: HCT-116
COLO 205 = tested on: COLO 205
CCRF-CEM = tested on: CCRF-CEM
SN12C = tested on: SN12C
SK-MEL-28 = tested on: SK-MEL-28
MDA-MB-231 = tested on: MDA-MB-231
NCI/ADR-RES = tested on: NCI/ADR-RES
MDA-MB-435 = tested on: MDA-MB-435
RXF 393 = tested on: RXF 393
ACHN = tested on: ACHN
UO-31 = tested on: UO-31
BT-549 = tested on: BT-549
NCI-H226 = tested on: NCI-H226
786-0 = tested on: 786-0
OVCAR-4 = tested on: OVCAR-4
SK-MEL-5 = tested on: SK-MEL-5
OVCAR-5 = tested on: OVCAR-5
SW-620 = tested on: SW-620
EKVX = tested on: EKVX
PC-3 = tested on: PC-3
HOP-92 = tested on: HOP-92
KM12 = tested on: KM12
SNB-19 = tested on: SNB-19
U-251 = tested on: U-251
SF-295 = tested on: SF-295
TK-10 = tested on: TK-10
OVCAR-3 = tested on: OVCAR-3
OVCAR-8 = tested on: OVCAR-8
SK-MEL-2 = tested on: SK-MEL-2
RPMI-8226 = tested on: RPMI-8226
M14 = tested on: M14
A549 = tested on: A549
Malme-3M = tested on: Malme-3M
UACC-62 = tested on: UACC-62
SK-OV-3 = tested on: SK-OV-3
LOX IMVI = tested on: LOX IMVI
NCI-H460 = tested on: NCI-H460
DU-145 = tested on: DU-145
SF-539 = tested on: SF-539
HL-60 = tested on: HL-60
UACC-257 = tested on: UACC-257
HCT-15 = tested on: HCT-15
MDA-N = tested on: MDA-N
K562 = tested on: K562
T47D = tested on: T47D
CAKI-1 = tested on: CAKI-1
SF-268 = tested on: SF-268
MOLT-4 = tested on: MOLT-4
A498 = tested on: A498
HT-29 = tested on: HT-29
NCI-H522 = tested on: NCI-H522

For `O=C1/C(=C2/CCCN2)C(c2ccc[nH]2)=NN1c1ccccc1`, the GI50 (NCI-H23) was > 100 µM (inactive), the GI50 (SNB-75) was > 100 µM (inactive) and the GI50 (HCT-116) was > 100 µM (inactive). The GI50 (COLO 205) was > 100 µM (inactive), the GI50 (CCRF-CEM) was 1.75 µM (inactive) and the GI50 (SN12C) was > 100 µM (inactive). The GI50 (SK-MEL-28) was > 100 µM (inactive), the GI50 (MDA-MB-231) was > 100 µM (inactive) and the GI50 (NCI/ADR-RES) was > 100 µM (inactive). For the same compound, the GI50 (MDA-MB-435) was > 100 µM (inactive), the GI50 (RXF 393) was > 100 µM (inactive) and the GI50 (ACHN) was > 100 µM (inactive). For the same compound, the GI50 (UO-31) was > 100 µM (inactive), the GI50 (BT-549) was > 100 µM (inactive) and the GI50 (NCI-H226) was > 100 µM (inactive). The GI50 (786-0) was > 100 µM (inactive), the GI50 (OVCAR-4) was > 100 µM (inactive) and the GI50 (SK-MEL-5) was > 100 µM (inactive). For the same compound, the GI50 (OVCAR-5) was > 100 µM (inactive), the GI50 (SW-620) was > 100 µM (inactive) and the GI50 (EKVX) was > 100 µM (inactive). For the same compound, the GI50 (PC-3) was > 100 µM (inactive), the GI50 (HOP-92) was > 100 µM (inactive) and the GI50 (KM12) was > 100 µM (inactive). For the same compound, the GI50 (SNB-19) was > 100 µM (inactive), the GI50 (U-251) was > 100 µM (inactive) and the GI50 (SF-295) was > 100 µM (inactive). For the same compound, the GI50 (TK-10) was > 100 µM (inactive), the GI50 (OVCAR-3) was > 100 µM (inactive) and the GI50 (OVCAR-8) was > 100 µM (inactive). For the same compound, the GI50 (SK-MEL-2) was > 100 µM (inactive), the GI50 (RPMI-8226) was > 100 µM (inactive) and the GI50 (M14) was > 100 µM (inactive). The GI50 (A549) was > 100 µM (inactive), the GI50 (Malme-3M) was > 100 µM (inactive) and the GI50 (UACC-62) was > 100 µM (inactive). For the same compound, the GI50 (SK-OV-3) was > 100 µM (inactive), the GI50 (LOX IMVI) was > 100 µM (inactive) and the GI50 (NCI-H460) was > 100 µM (inactive). The GI50 (DU-145) was > 100 µM (inactive), the GI50 (SF-539) was > 100 µM (inactive) and the GI50 (HL-60) was > 100 µM (inactive). The GI50 (UACC-257) was > 100 µM (inactive), the GI50 (HCT-15) was greater than 100 µM and the GI50 (MDA-N) was > 100 µM (inactive). For the same compound, the GI50 (K562) was > 100 µM (inactive), the GI50 (T47D) was > 100 µM (inactive) and the GI50 (CAKI-1) was > 100 µM (inactive). The GI50 (SF-268) was > 100 µM (inactive), the GI50 (MOLT-4) was > 100 µM (inactive) and the GI50 (A498) was > 100 µM (inactive). The GI50 (HT-29) was > 100 µM (inactive) and the GI50 (NCI-H522) was > 100 µM (inactive).
